Results as given in patent US11644474B2, “Use of macimorelin in assessing growth hormone deficiency in children” (Æterna Zentaris GmbH, priority 2020, dated 2023).
“And” between values parts separate entries of the source, which are not always exact repeats. Equal values may be shown once. “Also recorded” adds a separate entry of the source. Read-outs that look alike come from different tables or passages of the source.

Columns and labels:
Assay type in all cases: in vivo, human (paediatric subjects with suspected GHD)
[1] = Macimorelin plasma pharmacokinetics after single oral dose (Study AEZS-130-P01); conditions: for half-life: read-out: mean elimination half-life (converted); for Cmax: n=8 children; for AUC(0-t): read-out: mean AUC0-6 of macimorelin
Procedure: (§1) This was an open-label, group comparison, dose escalation trial to investigate the safety, tolerability, pharmacokinetics and pharmacodynamics of single-dose 0.25, 0.5, and 1 mg/kg oral macimorelin acetate in paediatric subjects with suspected GHD. The macimorelin GHST was administered between two standard GHST, conducted as per local clinical practice, with a recovery period of 7-28 days between tests. For the purposes of obtaining a detailed macimorelin PK profile in children, blood samples were collected pre-dose (±15 min) and 15, 30, 45, 60, 90, 120, and 360 minutes after macimorelin acetate intake.
(§2) The main features of Study P01 are summarized as follows: • Sequential cohorts of trial participants received macimorelin at ascending single oral doses: 0.25 mg/kg body weight in Cohort 1 (C1), 0.5 mg/kg body weight in Cohort 2 (C2), and 1 mg/kg body weight in Cohort 3 (C3). • For determination of macimorelin PK/PD: blood sampling at pre-dose, then 15, 30, 45, 60, 90, 120, and 360 minutes after the administration of macimorelin. • Two standard GHSTs (sGHSTs) had to be performed in a patient according to local practice. The related sGHST agents were considered as ‘background’ and not as IMPs. (Accepted test agents: insulin (insulin tolerance test or ITT), arginine, arginine/growth hormone releasing hormone (GHRH), clonidine, glucagon, L-dopa). Results
Macimorelin plasma concentrations: the analysis of plasma samples for macimorelin concentration was carried out at a central laboratory, Prolytic GmbH, Germany, using a validated liquid chromatography-mass spectrometry (LCMS/MS) method with a detection limit of 0.2 ng/mL (Franz, 2005).
Preliminary pharmacokinetics (PK) were determined by: time of maximum measured concentration (tmax) and maximum concentration (Cmax) of macimorelin plasma concentrations in the sampling period.

[2] = Safety and tolerability of single oral macimorelin (adverse events, questionnaires, safety laboratory, ECG); conditions: all three dosing cohorts, 0.25-1 mg/kg single oral dose; for safety and tolerability: questionnaires, safety laboratory, ECG
Procedure: as §1

GH secretion = assay: Macimorelin growth hormone stimulation test (GHST): serum GH after oral macimorelin (PD); conditions: for Peak GH after Macimorelin GHST: individual patients, serum
Procedure: as §1, §2
GH serum concentration: the analysis of serum samples for GH concentration was carried out at a central laboratory by a validated immunochemiluminometric assay (IDS-iSYS Human Growth Hormone (hGH), Immunodiagnostic Systems Ltd [UK]) (Manolopoulou et al., 2012). This assay is standardized to the recombinant growth hormone calibration standard WHO 98/574, and complies with recommendations on assay standardization as outlined by Clemmons (Clemmons, 2011).
The analytical laboratory applied for GH was: Central Laboratory Synevo Łódź, Krakusa Str. 28, 93-515 Łódź. Poland. The lower limit of quantification was <0.05 ng/mL.

[3] = human, C1, 0.25 mg/kg single oral dose, plasma
[4] = human, C2, 0.5 mg/kg single oral dose, plasma
[5] = human, C3, 1 mg/kg single oral dose, plasma

SMILES: CC(C)(N)C(=O)N[C@H](Cc1c[nH]c2ccccc12)C(=O)N[C@H](Cc1c[nH]c2ccccc12)NC=O [macimorelin]
- change of macimorelin AUC with dose ([1]; 0.25, 0.5, 1 mg/kg oral): increased with dose; also recorded: dose-dependent increase; also recorded: increases with the macimorelin dose
- change of macimorelin Cmax with dose ([1]; 0.25, 0.5, 1 mg/kg oral): dose-dependent increase; also recorded: dose-proportional increase
- change of macimorelin plasma concentrations with dose ([1]; 0.25, 0.5, 1 mg/kg oral, FIG. 1): dose-dependent increase with high inter-individual variability
- time at which maximum plasma concentrations for macimorelin were mainly observed ([1]; all cohorts, 0.25-1 mg/kg oral): 30 to 45 min
- half-life ([1]; human, plasma, C1, 0.25 mg/kg single oral dose): 1.22 h
- half-life ([1]; human, plasma, C2, 0.5 mg/kg single oral dose): 1.61 h
- half-life ([1]; human, plasma, C3, 1 mg/kg single oral dose): 1.71 h
- Tmax ([1]; human, plasma, all three groups C1-C3, 0.25-1 mg/kg oral): 0.5 to 0.75 h
- Cmax [1, 3]: 3.46 ng/mL
- AUC(0-t) [1, 3]: 6.69 ng·h/mL
- Cmax [1, 4]: 8.13 ng/mL
- AUC(0-t) [1, 4]: 18 ng·h/mL
- Cmax [1, 5]: 12.9 ng/mL
- AUC(0-t) [1, 5]: 30.9 ng·h/mL
- adverse events related to macimorelin ([2]; 24 children): none were considered related to the macimorelin test; also recorded: No adverse event was reported in relation to macimorelin
- safety and tolerability [2]: excellent safety and tolerability
- safety and tolerability ([2]; listed as Macimorelin acetate): safe and well tolerated in all dosing cohorts
- time within which peak GH levels were observed (GH secretion; C1, 0.25 mg/kg oral): 0.5 to 1 h
- mean Tmax of peak GH (GH secretion; C1, 0.25 mg/kg oral (SD 11.3)): 0.875 h
- Peak GH after Macimorelin GHST (GH secretion; C1, 0.25 mg/kg oral): 8.61 ng/mL and 0.51 ng/mL and 21.73 ng/mL and 5.22 ng/mL and 10.03 ng/mL and 14.07 ng/mL and 9.78 ng/mL and 8.38 ng/mL
- time within which peak GH levels were observed (GH secretion; C2, 0.5 mg/kg oral): 0.25 to 1 h
- mean Tmax of peak GH (GH secretion; C2, 0.5 mg/kg oral (SD 13.9)): 0.625 h
- Peak GH after Macimorelin GHST (GH secretion; C2, 0.5 mg/kg oral): 5.06 ng/mL and 20.73 ng/mL and 7.41 ng/mL and 10.43 ng/mL and 21.36 ng/mL and 16.41 ng/mL and 9.67 ng/mL and 27.42 ng/mL
- time within which peak GH levels were observed (GH secretion; C3, 1 mg/kg oral): 0.5 to 0.75 h
- mean Tmax of peak GH (GH secretion; C3, 1 mg/kg oral (SD 8.0)): 0.625 h
- stimulation of GH secretion (GH secretion; C3, 1 mg/kg oral, 8 patients): stimulated evidently in all 8 patients; also recorded: evident stimulation of GH secretion in all 8 patients
- Peak GH after Macimorelin GHST (GH secretion; C3, 1 mg/kg oral): 17.13 ng/mL and 14.46 ng/mL and 59.73 ng/mL and 49.16 ng/mL and 25.07 ng/mL and 14.63 ng/mL and 11.35 ng/mL and 44.73 ng/mL
- mean Tmax of GH release (GH secretion; all cohorts C1-C3): 0.5 to 1 h
- time of maximum GH release after macimorelin administration (GH secretion; all cohorts C1-C3): 0.25 to 2 h
- time at which peak GH levels were mainly observed following macimorelin intake (GH secretion; all three cohorts): 30 to 60 min
